Measured values reported in patent US11535597B2, “Photoreactive ligands and uses thereof” (The Scripps Research Institute, priority 2017, dated 2022).

Target: T1, YWHAE (Homo sapiens, UniProt P62258)
T1 construct: endogenous in cells; host or cells: human cells (HEK293T; a subset of probes also in K562)
T1 sequence (P62258 1-255): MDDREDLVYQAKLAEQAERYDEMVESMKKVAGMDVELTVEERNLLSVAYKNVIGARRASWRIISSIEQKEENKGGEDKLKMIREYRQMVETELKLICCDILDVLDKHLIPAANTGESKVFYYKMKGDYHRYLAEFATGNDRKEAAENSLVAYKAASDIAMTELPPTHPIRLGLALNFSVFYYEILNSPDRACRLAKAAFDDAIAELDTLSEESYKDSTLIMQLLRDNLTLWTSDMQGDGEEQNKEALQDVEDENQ
Assay: Mapping of FFF probe-modified peptide on YWHAE
Assay type: binding
Settings: for Labeled Peptide (residues) of YWHAE 14-3-3 protein epsilon: P62258, PDB 3UBW
Protocol: Preparation and analysis was adapted from methods previously reported. In brief, for global mapping of fragment probe-modified peptides, separate 10 cm dishes of cells were treated with probes (200-250 μM) in 3.0 mL of DMEM (serum-free) and (if applicable) competitor ligands, proteomes harvested and subjected to click chemistry conditions with either light or heavy isotopically labeled biotin-TEV-azide (10 μL of 5 mM stocks in DMSO, final concentration=100 μM), TCEP, ligand and CuSO4 as detailed above. The samples were allowed to react for 1 h at which point the samples were centrifuged (16,000 g, 5 min, 4° C.). The resulting pellets were sonicated in ice-cold methanol (500 μL) and the resuspended light- and heavy-labeled samples were then combined and centrifuged (16,000 g, 5 min, 4° C.). The pellets were then solubilized in PBS containing 1.2% SDS (1 mL) with sonication and heating (5 min, 95° C.). Samples were transferred to falcon tubes containing DPBS (5 mL), to which a 100 μL of streptavidin-agarose beads slurry was added. After incubation, the beads (3 hr) were pelleted by centrifugation (1,400 g, 3 min) and were washed (2×10 mL PBS and 2×10 mL water). The beads were transferred to eppendorf tubes with 1 mL DPBS, centrifuged (1,400 g, 3 min), and resuspended in PBS containing 6 M urea. To this was added 10 mM DTT (25 μL of a 200 mM stock in water) and the beads were incubated at 65° C. for 15 mins. 20 mM iodoacetamide (25 μL of a 400 mM stock in water) was then added and allowed to react at 37° C. for 30 mins with shaking. The bead mixture was diluted with 900 μL PBS, pelleted by centrifugation (1,400 g, 3 min), and resuspended in 200 μL 2M urea (DPBS) containing trypsin and CaCl2 as described above. […]
The resulting probe-modified peptides were collected for MS analysis, which was performed as described above with differences in the salt bumps applied in the chromatographic gradients which in this case were 0%, 30%, 60%, 90% and 100% NH4OAc (500 μM). […] The isoTOP ratios for probe labeled peptides were quantified using the in-house software CIMAGE. […]

C#CCCC1(CCC(=O)N2CCCCC2Cc2ccccc2)N=N1 (stereo not drawn) [probe 13, 1-(2-Benzylpiperidin-1-yl)-3-(3-(but-3-yn-1-yl)-3H-diazirin-3-yl)propan-1-one]
Labeled Peptide (residues) of YWHAE 14-3-3 protein epsilon (peptide AAFDDAIAELDTLSEESYK): 197-215 | Labeled Peptide (residues) of YWHAE 14-3-3 protein epsilon (peptide EAAENSLVAYK): 143-153 | probe-modified peptide in YWHAE (lines the primary interaction cleft for MLF1): aa 197-215
